# Assay results from PMC12040169 (PLOS Biology, 2025).
# Experiment: in vitro
# Conditions: human, hela cells, % viability
row,SMILES,"viability at 28.5 h, 10 µM [%]"
1,Cc1ccc2nc(COC(=O)c3cc(-c4ccccc4)nn3-c3ccccc3)cc(=O)n2c1 [CBK296959],89.8
2,CCCn1c(SCC(=O)c2ccc(CCNC(C)=O)cc2)n[nH]c1=O [CBK296965],92.1
3,CCCn1c(SCc2nc(N)nc(Nc3ccccc3CC)n2)n[nH]c1=O [CBK296966],86.6
4,CCCn1c(SCC(=O)Nc2scc(-c3cccs3)c2C(=O)OCC)n[nH]c1=O [CBK296967],94.5
5,COc1cc(C)c(CN2CCN(C(=O)COc3cc4ccccc4cc3C(=O)O)CC2)cc1OC [CBK296968],99.6
6,CCCn1c(SCc2csc(CC(=O)Nc3ccccc3C)n2)n[nH]c1=O [CBK296969],91.1
7,CCCCc1ccc(N2C(=O)CC(Nc3ccc(C(=O)O)cc3)C2=O)cc1 (centres unmarked) [CBK296972],108
8,COc1cc(-c2nnc(CSc3nc4sc(C(=O)O)c(C)c4c(=O)[nH]3)o2)cc(OC)c1OC [CBK296973],91
9,O=C(O)CCC(=O)Nc1cccc(C(=O)Nc2cccc(Cl)c2)c1 [CBK296977],89.8
10,Cc1ccc(Sc2ncccc2C(=O)Nc2ccnn2Cc2cccnc2)cc1C [CBK296980],109
11,COc1ccc(OC)c(-n2c(SCC(=O)N3CCC(C(=O)O)CC3)nc3ccccc3c2=O)c1 [CBK296981],87.5
12,CSCCC(C(=O)O)N1C(=O)C(=Cc2ccc(-c3cccc(Cl)c3)o2)SC1=S (centres unmarked) [CBK296982],99.3
13,CCCC(C(=O)O)N1C(=O)C(=Cc2ccc(-c3ccc(C(=O)OCC)cc3)o2)SC1=S (centres unmarked) [CBK296983],80.6
14,CCC(C(=O)O)N1C(=O)C(=Cc2ccc(-c3ccccc3C(F)(F)F)o2)SC1=S (centres unmarked) [CBK296985],99.4
15,COc1cc(C=CC(=O)O)ccc1OCC(=O)N1CCN(CC(=O)NC(C)(C)C)CC1 [CBK296987],114
16,O=C(O)c1cc(C=Cc2cn(Cc3ccccc3)nc2-c2cccnc2)nc2ccccc12 [CBK296988],105
17,Cc1c(C(=O)O)sc2nc(SCC(=O)Nc3ccc(OCc4ccccc4)cc3)[nH]c(=O)c12 [CBK296992],88.5
18,Cc1cc(C(C)(C)C)cc(C)c1COC(=O)c1ccncc1 [CBK296995],112
19,CC(=O)Nc1cccc(NC(=O)c2cc(-c3ccccc3)nn2-c2ccccc2)c1 [CBK296997],90.1
20,C[C@H](NC(=O)Cc1ccc(-c2ccccc2)cc1)c1nc2ccccc2[nH]1 [CBK296998],98.5
21,CC1=C(C(=O)N2CCOCC2)C(c2ccc(Cl)cc2)NC(=O)N1c1ccc(C(=O)O)cc1 (centres unmarked) [CBK296999],93.1

row,SMILES,"viability at 28.5 h, 10 µM [%]"
1,CS(=O)(=O)N1CCc2cc(C(=O)Cn3nc(C(=O)O)c4ccccc4c3=O)ccc21 [CBK297000],80.4
2,CC(NC(=O)c1ccccc1)C(=O)OCn1nnc2ccccc2c1=O (centres unmarked) [CBK297001],92
3,Cc1nc2cc(NC(=O)Cc3c(C)nc4ccccc4c3C)ccc2o1 [CBK297083],110
4,CC(=O)Nc1ccc(-c2csc(NC(=O)NS(=O)(=O)c3ccc(C)cc3)n2)cc1 [CBK297084],107
5,Cc1ccc(C(CC(=O)O)NC(=O)c2ccc(C)c(S(=O)(=O)N3CCCCC3)c2)cc1 (centres unmarked) [CBK297095],82.7
6,CC1CCN(S(=O)(=O)c2ccc(C(=O)N3CCC(C(=O)O)CC3)cc2)CC1 [CBK297097],105
7,O=C(O)c1cc(S(=O)(=O)Nc2ccc(OCc3ccccc3)cc2)ccc1Br [CBK297098],113
8,CC(C)(C)c1cc(NC(=O)CSc2ccc(S(=O)(=O)N3CCCC3)cn2)n(-c2ccccc2)n1 [CBK297099],89
9,O=C(Cn1cnc2sc(-c3ccccc3)cc2c1=O)c1ccc2c(c1)OCO2 [CBK297102],87
10,Nc1nc(N)nc(CSc2ncc(-c3ccccc3)n2-c2ccccc2)n1 [CBK297103],85.9
11,Cc1cc(C(=O)C(C)Oc2ccc(-c3nnco3)cc2)c(C)n1-c1ccccc1 (centres unmarked) [CBK297104],101
12,CS(=O)(=O)Cc1cccc(C(=O)Nc2ccc(Oc3ccccc3)cc2)c1 [CBK297111],87.5
13,O=C(O)CC(=Cc1csc(-c2ccc(Cl)cc2)n1)c1nc2ccccc2o1 [CBK297112],104
14,CC1(CCc2ccccc2)NC(=O)N(CC(=O)c2ccc(-c3ccccc3)cc2)C1=O (centres unmarked) [CBK297114],107
15,O=C(C1CN(C(=O)Cn2ncc(=O)c3ccccc32)c2ccccc2O1)N1CCCCC1 (centres unmarked) [CBK297115],93.5
16,CC[C@H](C)[C@H](NC(=O)C1CCN(S(=O)(=O)c2ccc(Cl)c(C(F)(F)F)c2)CC1)C(=O)O [CBK297117],91.5
17,Cc1c(C(=O)O)sc(S(=O)(=O)N2CCN(C(=O)c3ccc(C(C)(C)C)cc3)CC2)c1C(=O)O [CBK297119],85.1
18,Cc1c(C(=O)O)sc(S(=O)(=O)N2CCN(C(=O)CCC3CCCC3)CC2)c1C(=O)O [CBK297121],117
19,Cc1cccc(C(=O)N2CCN(S(=O)(=O)c3sc(C(=O)O)c(C)c3C(=O)O)CC2)c1 [CBK297124],91.4
20,CCS(=O)(=O)N1CCc2cc(C(=O)CSc3nnc(-c4ccco4)o3)ccc21 [CBK297126],98.3
